Laboratory results as given in paper PMC3701070 (PLoS ONE, 2013).

What was measured:
Assay in all cases: Cell growth assay
Type in all cases: cell-based
[1] = test system: 22Rv1; conditions: Homo sapiens, 72 h; 22Rv1, RAF WT, RAS WT, 3-day; read-out: gIC50
Protocol: (§1) Growth was measured with CellTiter-Glo® (Promega) reagent per the manufacturer’s protocol, using a PerkinElmer EnVision™ reader at t = 0 and 72 h. IC50 values for cell growth inhibition (gIC50) were determined.
(§2) (PDF) Click here for additional data file.

[2] = test system: A549; conditions: Homo sapiens, 72 h; A549, RAF WT, KRAS(G12S), 3-day; read-out: gIC50
Protocol: as §1, §2

[3] = test system: C3A; conditions: Homo sapiens, 72 h, RAF WT, RAS WT, 3-day, read-out: gIC50
Protocol: as §1, §2

[4] = test system: CGTHW1; conditions: Homo sapiens, CGTH-W-1, 72 h; CGTHW1, RAF WT, RAS WT, 3-day; read-out: gIC50
Protocol: as §1, §2

[5] = test system: CaOV3; conditions: Homo sapiens, Caov-3, 72 h; CaOV3, RAF WT, RAS WT, 3-day; read-out: gIC50
Protocol: as §1, §2

[6] = test system: Calu-6; conditions: Homo sapiens, 72 h; Calu-6, RAF WT, KRAS(Q61K), 3-day; read-out: gIC50
Protocol: as §1, §2

[7] = test system: Colo320DM; conditions: Homo sapiens, COLO 320DM, 72 h, RAF WT, RAS WT, 3-day, read-out: gIC50
Protocol: as §1, §2

[8] = test system: Colo704; conditions: Homo sapiens, COLO 704, 72 h; Colo704, RAF WT, RAS WT, 3-day; read-out: gIC50
Protocol: as §1, §2

[9] = test system: DLD-1; conditions: Homo sapiens, 72 h; DLD-1, RAF WT, KRAS(G13D), 3-day; read-out: gIC50
Protocol: as §1, §2

[10] = test system: Daudi; conditions: Homo sapiens, 72 h, RAF WT, RAS WT, 3-day, read-out: gIC50
Protocol: as §1, §2

[11] = test system: FaDu; conditions: Homo sapiens, 72 h, RAF WT, RAS WT, 3-day, read-out: gIC50
Protocol: as §1, §2

[12] = test system: G401; conditions: Homo sapiens, G-401, 72 h; G401, RAF WT, RAS WT, 3-day; read-out: gIC50
Protocol: as §1, §2

[13] = test system: HCC-1954; conditions: Homo sapiens, HCC1954, 72 h; HCC-1954, RAF WT, RAS WT, 3-day; read-out: gIC50
Protocol: as §1, §2

[14] = test system: HCC-2998; conditions: Homo sapiens, 72 h; HCC-2998, RAF WT, KRAS(A146T), 3-day; read-out: gIC50
Protocol: as §1, §2

[15] = test system: HCC-70; conditions: Homo sapiens, HCC70, 72 h; HCC-70, RAF WT, RAS WT, 3-day; read-out: gIC50
Protocol: as §1, §2

[16] = test system: HPAF-II; conditions: Homo sapiens, 72 h, RAF WT, RAS WT, 3-day, read-out: gIC50
Protocol: as §1, §2

[17] = test system: HT-29; conditions: Homo sapiens, 72 h; HT-29, BRAF(V600E), RAS WT, 3-day; read-out: gIC50
Protocol: as §1, §2

[18] = test system: Hep3B; conditions: Homo sapiens, 72 h, RAF WT, RAS WT, 3-day, read-out: gIC50
Protocol: as §1, §2

[19] = test system: Kato III; conditions: Homo sapiens, 72 h, RAF WT, RAS WT, 3-day, read-out: gIC50
Protocol: as §1, §2

[20] = test system: LS-174T; conditions: Homo sapiens, LS174T, 72 h, RAF WT, KRAS(G12D), 3-day, read-out: gIC50
Protocol: as §1, §2

[21] = test system: MDA-MB-231; conditions: Homo sapiens, 72 h; MDA-MB-231, BRAF(G464V), KRAS(G13D), 3-day; read-out: gIC50
Protocol: as §1, §2

[22] = test system: MiaPaCa; conditions: Homo sapiens, MIA PaCa-2, 72 h, RAF WT, RAS WT, 3-day, read-out: gIC50
Protocol: as §1, §2

[23] = test system: NCI-H358; conditions: Homo sapiens, 72 h; NCI-H358, RAF WT, RAS WT, 3-day; read-out: gIC50
Protocol: as §1, §2

[24] = test system: SCC-25; conditions: Homo sapiens, 72 h; SCC-25, RAF WT, RAS WT, 3-day; read-out: gIC50
Protocol: as §1, §2

[25] = test system: SF-295; conditions: Homo sapiens, 72 h; SF-295, RAF WT, RAS WT, 3-day; read-out: gIC50
Protocol: as §1, §2

[26] = test system: SHP-77; conditions: Homo sapiens, SHP77, 72 h; SHP-77, RAF WT, KRAS(G12V), 3-day; read-out: gIC50
Protocol: as §1, §2

[27] = test system: SK-N-DZ(note); conditions: Homo sapiens, 72 h, RAF WT, RAS WT, 3-day, read-out: gIC50
Protocol: as §1, §2

[28] = test system: SW1088; conditions: Homo sapiens, 72 h; SW1088, RAF WT, RAS WT, 3-day; read-out: gIC50
Protocol: as §1, §2

[29] = test system: SW684; conditions: Homo sapiens, 72 h; SW684, RAF WT, RAS WT, 3-day; read-out: gIC50
Protocol: as §1, §2

[30] = test system: SW756; conditions: Homo sapiens, 72 h; SW756, RAF WT, KRAS(G12C), 3-day; read-out: gIC50
Protocol: as §1, §2

[31] = test system: UACC-257; conditions: Homo sapiens, 72 h; UACC-257, BRAF(V600E), RAS WT, 3-day; read-out: gIC50
Protocol: as §1, §2

[32] = test system: UMUC-3; conditions: Homo sapiens, UMUC3, 72 h; UMUC-3, RAF WT, KRAS(G12C), 3-day; read-out: gIC50
Protocol: as §1, §2

Structure (SMILES): CC(C)(C)c1nc(-c2cccc(NS(=O)(=O)c3c(F)cccc3F)c2F)c(-c2ccnc(N)n2)s1 [dabrafenib]
- IC50 [1]: > 10 µM
- IC50 [2]: > 10 µM
- IC50 [3]: 5.41 µM
- IC50 [4]: > 10 µM
- IC50 [5]: > 10 µM
- IC50 [6]: > 10 µM
- IC50 [7]: > 10 µM
- IC50 [8]: > 10 µM
- IC50 [9]: > 10 µM
- IC50 [10]: > 10 µM
- IC50 [11]: > 10 µM
- IC50 [12]: > 10 µM
- IC50 [13]: > 10 µM
- IC50 [14]: > 10 µM
- IC50 [15]: > 10 µM
- IC50 [16]: > 10 µM
- IC50 [17]: 0.066 µM
- IC50 [18]: > 10 µM
- IC50 [19]: > 10 µM
- IC50 [20]: > 10 µM
- IC50 [21]: > 10 µM
- IC50 [22]: > 10 µM
- IC50 [23]: > 10 µM
- IC50 [24]: > 10 µM
- IC50 [25]: > 10 µM
- IC50 [26]: > 10 µM
- IC50 [27]: > 10 µM
- IC50 [28]: > 10 µM
- IC50 [29]: > 10 µM
- IC50 [30]: > 10 µM
- IC50 [31]: 0.006 µM
- IC50 [32]: > 10 µM
